According to patent US20190358242A1, “COMPOSITIONS, KITS, AND METHODS TO INDUCE ACQUIRED CYTORESISTANCE USING STRESS PROTEIN INDUCERS” (FRED HUTCHINSON CANCER RESEARCH CENTER, priority 2017, published 2019):
“And” between values parts separate entries of the source, which are not always exact repeats. Equal entries are not always repeated.

Assays:
[1] = test system: HO-1 protein; test: Renal cortex HO-1 protein (ELISA) after IV myoglobin, SnPP or both; type: in vivo, CD-1 mice; details: 4 hr IV; 1 mg myoglobin, 1 μmole SnPP
From the text: The Glycerol Model of AKI. This is a widely used model of rhabdomyolysis-induced AKI that has been employed worldwide for 50 years. The model was used to test whether prophylactic interventions confer protection against AKI. Basically, the protocol is as follows: Male CD-1 mice (35-45 grams), obtained from Charles River Laboratories, Wilmington, Mass. were studied. Mice were maintained under standard vivarium conditions and generally housed for 1-3 weeks prior to study. The mice were placed in a cylindrical restraining cage, and then were given a tail vein injection of the test substances (see below) or test substance vehicle. The mice were then returned to their cages. Eighteen hours (hrs) later, the mice were briefly anesthetized by isoflurane inhalation, and given an intramuscular injection of hypertonic (50%) glycerol in a dose of 9 ml/Kg body weight. The dose is divided in two, with half injected into the muscle of each of the hind limbs. The mice were then returned to their cages. Eighteen hrs later, the mice were deeply anesthetized with pentobarbital (50-100 mg/Kg), the abdominal cavity was opened through a midline abdominal incision, a blood sample was obtained from the abdominal vena cava and the kidneys were resected. A kidney cross section was obtained and fixed in formalin for subsequent histologic analysis. The terminal blood samples were analyzed for BUN and creatinine, using commercially available assay kits. The remaining kidney tissue was subjected to cortical dissection, and the cortical tissues were then extracted for protein and RNA. The protein samples were saved for analysis of HO-1 levels, and the RNA samples were subjected to RT-PCR to quantify HO-1 mRNA as well as levels of other stress gene mRNAs (e.g. NGAL, haptoglobin, hemopexin, hepicidin).
Myoglobin+SnPP: To 5 mg of dry myoglobin was added 0.9 ml of PBS+0.1 ml of a stock SnPP solution (50 umole/ml). The resulting final concentrations were 5 mg/ml myoglobin+5 umoles/ml of SnPP. The tail vein was injected with 200 ul of this solution, which equals 1 mg myoglobin+1 umole SnPP. […]
Four hr post myoglobin vs myoglobin+SnPP vs SnPP alone experiments. To confirm that the myoglobin+SnPP has a synergistic effect in inducing HO-1 mRNA and HO-1 protein levels, each of the above combinations have been administered alone via tail vein injection. Four hrs later, the mice were sacrificed as noted above and the kidneys were harvested for assessment of HO-1 mRNA and protein levels. For additional information regarding methods, see Zager et al., Am J Physiol Renal Physiol. 2014 Jul. 30. Pii.
Given that it is just 4 hrs post injection, the mRNA increases are greater than the protein increases as protein synthesis must follow the mRNA induction-requiring more time.

[2] = test system: IL-10 mRNA; test: Kidney IL-10 mRNA (RT-PCR); type: in vivo, CD-1 mice
Protocol: (§1) Thirty-two mice were divided into 4 equal groups: (1) control mice; (2) mice treated with 1 mg of N-Mgb injection (as a bolus through the tail vein); (3) mice treated with […] of SnPP (via tail vein); and (4) mice treated with combined N-Mgb 1 SnPP. After either 4 hours (n=16) or 18 hours (n=16), the mice were deeply anesthetized with pentobarbital (50 mg/kg), the abdomen was opened through a midline abdominal incision, and the kidneys were removed. To determine potential effects on extrarenal organs, a liver lobe and the heart were also removed. The tissues were iced and then extracted for protein and RNA (RNeasy Plus Mini; Qiagen, Valencia, Calif.) and subjected to enzyme linked immunosorbent assay (ELISA) and reverse transcriptase polymerase chain reaction (RT-PCR) for HO-1, haptoglobin, and IL-10 protein and messenger RNAs (mRNAs). Zager et al. J Am Soc Nephrol 2014; 25:998-1012; Zager et al. Am J Physiol 2012; 303:F139-48. As an assessment of renal function, control mice and the 18 hour after N-Mgb+SnPP-treated mice had blood urea nitrogen (BUN) and plasma creatinine levels measured. Additionally, transverse 10% formalin fixed kidney sections ([…]) were cut and stained with hematoxylin and eosin (H&E) and periodic acid Schiff (PAS) to further assess potential injury.

[3] = test system: HO-1 mRNA; test: Liver HO-1 mRNA (RT-PCR); type: in vivo, CD-1 mice
Protocol: as §1

[4] = test system: haptoglobin mRNA; test: Liver haptoglobin mRNA (RT-PCR); type: in vivo, CD-1 mice
Protocol: as §1

[5] = test system: haptoglobin protein; test: Liver haptoglobin protein (ELISA); type: in vivo, CD-1 mice; set-up: unit not given beside the values
Protocol: as §1

[6] = test system: HO-1 protein; test: Cardiac HO-1 protein (ELISA); type: in vivo, CD-1 mice; details: 18 h after IV injection
Protocol: as §1

[7] = test system: haptoglobin protein; test: Cardiac haptoglobin protein (ELISA); type: in vivo, CD-1 mice
Protocol: as §1

[8] = test system: IL-10 protein; test: Cardiac IL-10 protein (ELISA); type: in vivo, CD-1 mice
Protocol: as §1

[9] = test system: HO-1 mRNA; test: SnPP vs. SnMeP: renal cortical HO-1 mRNA induction (RT-PCR); type: in vivo, mice; details: 1 umole, 4 hrs post injection, n 3
From the text: (§2) FIG. 28. Comparison of SnPP vs. SnMeP effects on renal cortical HO-1 and haptoglobin mRNA induction 4 hrs post agent injection. Mice received either 1 umole tin protoporphyrin (SnPP), tin mesoporphyrin (SnMeP), or vehicle (n, 3 each) and 4 hrs renal cortical RNA was extracted and subjected to RT-PCR.

[10] = test system: haptoglobin mRNA; test: SnPP vs. SnMeP: renal cortical haptoglobin mRNA induction (RT-PCR); type: in vivo, mice; details: 1 umole, 4 hrs post injection, n 3
From the text: as §2

[11] = test system: Mgb-exposed cultured proximal tubule (HK-2) cells; details: Zager & Burkhart, Kidney Int 1997; cited from earlier work

## C=Cc1c2[n-]c(c1C)/C=c1\[n-]/c(c(C)c1C=C)=C\c1[n-]c(c(CCC(=O)O)c1C)/C=c1\[n-]c(c(C)c1CCC(=O)O)=C2.[Sn+4] [SnPP, tin protoporphyrin]
[1]
  Cortex HO-1 protein (ELISA), Average: 34.4 ng HO-1/mg protein
  Cortex HO-1 protein (ELISA), individual mice: 31.5 ng HO-1/mg protein and 20.5 ng HO-1/mg protein and 53.6 ng HO-1/mg protein and 32.2 ng HO-1/mg protein
[2]; 4-hour time point, agent alone
  Impact on renal IL-10 mRNA levels, in words: either minimal or no impact
[2]; 4 h after IV injection, N-Mgb 1 mg, SnPP 1 mmol [sic]
  Kidney mRNA IL-10: 0.39 ± 0.15
[2]; 18 h after IV injection
  Kidney mRNA cortex IL-10: 0.18 ± 0.09
[3]; 4 h after IV injection
  Liver mRNA HO-1: 3.15 ± 0.25
[3]; 18 h after IV injection
  Liver mRNA HO-1: 2.56 ± 0.21
[4]; 4 h after IV injection
  Liver mRNA Haptoglobin: 0.32 ± 0.02
[4]; 18 h after IV injection
  Liver mRNA Haptoglobin: 0.65 ± 0.17
[5]; 4 h after IV injection
  Liver protein Haptoglobin: 130.0 ± 8.9
[5]; 18 h after IV injection
  Liver protein Haptoglobin: 212.0 ± 63.6
[6]
  Cardiac protein HO-1: 2.67 ± 0.4
[7]; 4 h after IV injection
  Cardiac protein Haptoglobin: 19.1 ± 2.1
[7]; 18 h after IV injection
  Cardiac protein Haptoglobin: 96.1 ± 36.2
[8]; 4 h after IV injection
  Cardiac Protein IL-10: 15.8 ± 10^
[8]; 18 h after IV injection
  Cardiac protein IL-10 (L-10 [sic]): 23.4 ± 14^
[9]
  Renal cortical HO-1 mRNA induction: raised
[10]
  Renal cortical haptoglobin mRNA induction: raised
[11]
  Reduction of Mgb toxicity: ≤ 85%
